Test results from ChEMBL document CHEMBL1151429, “Novel drug resistance pattern associated with the mutations K70G and M184V in human immunodeficiency virus type 1 reverse transcriptase” (2007).

system: Human immunodeficiency virus 1; experiment: Ratio of IC50 for HIV1 with reverse transcriptase K70G mutation to IC50 for wild type HIV1; type: functional

Question: How did the “Ratio IC50” value turn out when `Nc1nc(NC2CC2)c2ncn([C@H]3C=C[C@@H](CO)C3)c2n1` [ABACAVIR] was run?
Answer: The value was 2.1.

Question: How did the “Ratio IC50” value turn out when `O=c1[nH]cnc2c1ncn2[C@H]1CC[C@@H](CO)O1` [DIDANOSINE] was run?
Answer: Its value is 2.1.

Question: Which “Ratio IC50” value does the source give for `Cc1cn([C@H]2C=C[C@@H](CO)O2)c(=O)[nH]c1=O` [STAVUDINE] here?
Answer: The value was 1.3.

Question: `C[C@H](Cn1cnc2c(N)ncnc21)OCP(=O)(O)O` [TENOFOVIR ANHYDROUS] was tested. Which “Ratio IC50” value did it give?
Answer: The value was 1.9.

system: Human immunodeficiency virus 1; experiment: Antiviral activity against HIV1 with reverse transcriptase K70E M184V and K70G M184V mutation by antivirogram biological cutoffs assay relative to wild type HIV1; type: functional

Question: For `Nc1nc(NC2CC2)c2ncn([C@H]3C=C[C@@H](CO)C3)c2n1` [ABACAVIR], which “fold change (FC)” value is on record?
Answer: The value was 2.2.

Question: With `O=c1[nH]cnc2c1ncn2[C@H]1CC[C@@H](CO)O1` [DIDANOSINE] as the molecule, how does the “fold change (FC)” value read?
Answer: Its value is 2.2.

Question: For `Nc1nc(=O)n([C@@H]2CS[C@H](CO)O2)cc1F` [EMTRICITABINE], which “fold change (FC)” value is on record?
Answer: Its value is 3.5.

Question: Which “fold change (FC)” value does the source give for `Nc1ccn([C@@H]2CS[C@H](CO)O2)c(=O)n1` [LAMIVUDINE] here?
Answer: Its value is 2.4.

Question: How did the “fold change (FC)” value turn out when `Cc1cn([C@H]2C=C[C@@H](CO)O2)c(=O)[nH]c1=O` [STAVUDINE] was run?
Answer: Its value is 2.3.

Question: For `C[C@H](Cn1cnc2c(N)ncnc21)OCP(=O)(O)O` [TENOFOVIR ANHYDROUS], which “fold change (FC)” value is on record?
Answer: Its value is 2.1.

Question: For `Cc1cn([C@H]2C[C@H](N=[N+]=[N-])[C@@H](CO)O2)c(=O)[nH]c1=O` [ZIDOVUDINE], which “fold change (FC)” value is on record?
Answer: Its value is 2.7.

system: Human immunodeficiency virus 1; experiment: Ratio of IC50 for HIV1 with reverse transcriptase K70G/M184V mutation to IC50 for wild type HIV1; type: functional

Question: With `Nc1nc(NC2CC2)c2ncn([C@H]3C=C[C@@H](CO)C3)c2n1` [ABACAVIR] as the molecule, how does the “Ratio IC50” value read?
Answer: Its value is 3.2.

Question: For `O=c1[nH]cnc2c1ncn2[C@H]1CC[C@@H](CO)O1` [DIDANOSINE], which “Ratio IC50” value is on record?
Answer: The value was 5.3.

Question: Which “Ratio IC50” value does the source give for `Nc1nc(=O)n([C@@H]2CS[C@H](CO)O2)cc1F` [EMTRICITABINE] here?
Answer: Its value is >63.4.

Question: `Cc1cn([C@H]2C=C[C@@H](CO)O2)c(=O)[nH]c1=O` [STAVUDINE] was tested. Which “Ratio IC50” value did it give?
Answer: The value was 0.9.

Question: Which “Ratio IC50” value does the source give for `C[C@H](Cn1cnc2c(N)ncnc21)OCP(=O)(O)O` [TENOFOVIR ANHYDROUS] here?
Answer: Its value is 1.5.

Question: For `Cc1cn([C@H]2C[C@H](N=[N+]=[N-])[C@@H](CO)O2)c(=O)[nH]c1=O` [ZIDOVUDINE], which “Ratio IC50” value is on record?
Answer: Its value is <0.8.

system: Human immunodeficiency virus 1; experiment: Ratio of IC50 for HIV1 with reverse transcriptase K70E/M184V mutation to IC50 for wild type HIV1; type: functional

Question: For `Nc1nc(NC2CC2)c2ncn([C@H]3C=C[C@@H](CO)C3)c2n1` [ABACAVIR], which “Ratio IC50” value is on record?
Answer: Its value is 1.3.

Question: How did the “Ratio IC50” value turn out when `O=c1[nH]cnc2c1ncn2[C@H]1CC[C@@H](CO)O1` [DIDANOSINE] was run?
Answer: Its value is 1.6.

Question: `Nc1nc(=O)n([C@@H]2CS[C@H](CO)O2)cc1F` [EMTRICITABINE] was tested. Which “Ratio IC50” value did it give?
Answer: Its value is >40.8.

Question: How did the “Ratio IC50” value turn out when `Cc1cn([C@H]2C=C[C@@H](CO)O2)c(=O)[nH]c1=O` [STAVUDINE] was run?
Answer: The value was 0.4.

Question: For `C[C@H](Cn1cnc2c(N)ncnc21)OCP(=O)(O)O` [TENOFOVIR ANHYDROUS], which “Ratio IC50” value is on record?
Answer: Its value is 1.7.

Question: For `Cc1cn([C@H]2C[C@H](N=[N+]=[N-])[C@@H](CO)O2)c(=O)[nH]c1=O` [ZIDOVUDINE], which “Ratio IC50” value is on record?
Answer: The value was <0.3.

system: Human immunodeficiency virus 1; experiment: Antiviral activity against HIV1 LAI with reverse transcriptase K70E mutation relative to wild type HIV1 LAI; type: functional

Question: How did the “fold change (FC)” value turn out when `C[C@H](Cn1cnc2c(N)ncnc21)OCP(=O)(O)OP(=O)(O)OP(=O)(O)O` was run?
Answer: Its value is 2.1.

Question: Which “fold change (FC)” value does the source give for `Nc1nc(=O)c2ncn([C@H]3C=C[C@@H](COP(=O)(O)OP(=O)(O)OP(=O)(O)O)C3)c2[nH]1` [CARBOVIR 5'-TRIPHOSPHATE, (-)-] here?
Answer: Its value is 2.3.

Question: With `Nc1ccn([C@@H]2CS[C@H](COP(=O)(O)OP(=O)(O)OP(=O)(O)O)O2)c(=O)n1` [LAMIVUDINE TRIPHOSPHATE] as the molecule, how does the “fold change (FC)” value read?
Answer: The value was 3.5.
